The results in this text go back to US6797824B2, “Certain 4-aminomethyl-2-substituted imidazole derivatives and 2-aminomethyl-4-substituted imidazole derivatives; new classes of dopamine receptor subtype specific ligands” (Neurogen Corporation, priority 1990, dated 2004).

Where a name gives a salt, the structure may show the parent alone.

Regarding `O=C(c1cnc(-c2ccccc2)[nH]1)N1CCN(c2ncccn2)CC1` [Compound 144, 2-phenyl-4(5)-N-[(4-(2-pyrimidinyl)-piperazin-1-yl)-carboxamido]-imidazole], the melting point lay in the range of 231 to 232 °C.

In turn, `C[C@@H]1CN(c2ncccn2)C[C@H](C)N1Cc1cnc(-c2ccccc2)[nH]1` [Compound 140, 2-phenyl-4(5)-[(4-(2-pyrimidinyl)-cis-2,6-dimethylpiperazin-1-yl)-methyl]-imidazole] came in with a melting point of 130 to 135 °C.

In turn, `Ic1nc(-c2ccccc2)[nH]c1CN1CCN(c2ncccn2)CC1` (as salt: hydroiodid) [Compound 90, 2-phenyl-5-iodo-4(5)-[(4-(2-pyrimidinyl)piperazin-1-yl)methyl]-imidazole hydroiodide salt] came in with a melting point of 196 to 199 °C.

`CCc1ccc(OC)c(-c2ncc(CN3CCN(c4ccccc4OC)CC3)[nH]2)c1` (as salt: hydrochloride) [Compound 55, 2-(5-Ethyl-2-methoxyphenyl-4(5)-[(4-(2-methoxyphenyl)-piperazin-1-yl)-methyl]-imidazoledihydrochloride] had a melting point of 61 to 64 °C.

`COc1ccc(Cl)cc1-c1ncc(CN2CCN(c3ccccc3OC)CC2)[nH]1` (as salt: hydrochloride) [Compound 43, 2-(5-Chloro-2-methoxyphenyl)-4(5)-[(4-(2-methoxyphenyl)-piperazin-1-yl)-methyl]-imidazole dihydrochloride] had a melting point of 138 to 143 °C.

`Cc1ccc(Cl)cc1N1CCN(Cc2cnc(-c3ccccc3)[nH]2)CC1` (as salt: hydrochloride) [Compound 60, 2-Phenyl-4(5)-[(4(5-chloro-2-methylphenyl)-piperazin-1yl-)-methyl]imidazole dihydrochloride] returned a melting point of 142 to 145 °C.

In turn, `Fc1ccc(N2CCN(Cc3cnc(-c4ccccc4)[nH]3)CC2)cc1` (as salt: hydrochloride) [Compound 56, 2-Phenyl-4(5)-[(4(4-fluorophenyl)-piperazin-1yl-)methyl]imidazole dihydrochloride] showed a melting point of 64 to 68 °C.

The compound `c1ccc(CC2CCN(Cc3cnc(-c4cccc5ccccc45)[nH]3)CC2)cc1` [Compound 92, 2-(1-naphthyl)-4(5)-[(4-benzyl-piperidin-1-yl)-methyl]imidazole] displayed a melting point of 81 to 83 °C.

With `COc1ccc(Br)cc1-c1ncc(CN(C)C)[nH]1` (as salt: hydrochloride) [Compound 1, 2-(5-bromo-2-methoxyphenyl)-4(5)-[(N,N-dimethyl)aminomethyl]-imidazole dihydrochloride], the melting point is 242 to 243 °C.

As for `Fc1ccccc1-c1nc(CN2CCC(c3ccccc3)CC2)c[nH]1` (as salt: maleate) [Compound 52, 2-(2-Fluorophenyl)-4(5)[(4-phenyl-piperidin-1-yl)-methyl]-imidazole dimaleate], the melting point fell in the range of 142 to 144 °C.

As for `c1ccc(CC2CCN(Cc3ncc(-c4ccccc4)[nH]3)CC2)cc1` (as salt: fumarate) [Compound 77, 4phenyl-2(5)-[(4-benzylpiperidin-1-yl)-methyl]imidazole], the melting point lay within 155 to 157 °C.

`COc1ccccc1N1CCN(Cc2cnc(-c3cccc(OC)c3OC)[nH]2)CC1` (as salt: hydrochloride) [Compound 21, 2-(2,3-Dimethoxyphenyl)-4(5)-[(4-(2-methoxyphenyl)-piperazin-1-yl)-methyl]-imidazole dihydrochloride] returned a melting point of 217 to 218 °C.

Compound `COc1cc(Br)cc(-c2ncc(CN(C)C)[nH]2)c1OC` (as salt: hydrochloride) [Compound 16, 2-(5-Bromo-2,3-dimethoxyphenyl)-4(5)-[(N,N-dimethyl)aminomethyl]-imidazole dihydrochloride] displayed a melting point of 194 °C.

The compound `O=C(CCc1cnc(-c2ccccc2)[nH]1)N1CCN(c2ncccn2)CC1` [Compound 122, 2-phenyl-4(5)-[(4-(2-pyrimidinyl)-piperazin-1-yl)-propan-1-oyl]-imidazole] gave a melting point of 143 to 148 °C.

For `O=C(/C=C/c1cnc(-c2ccccc2)[nH]1)N1CCN(c2ncccn2)CC1` [Compound 119, 2-phenyl-4(5)-[(4(2-pyrimidinyl)-piperazin-1-yl)-propen-1-oyl]-imidazole], the melting point lay within 235 to 236 °C.

Regarding `c1ccc(-c2nc(-c3ccccc3)c(CN3CCN(c4ncccn4)CC3)[nH]2)cc1` [Compound 132, 2,5-diphenyl-4(5)-[(4-(2-pyrimidinyl)piperazin-1-yl)methyl]-imidazole], the melting point lay in the range of 221 to 225 °C.

Compound `c1cnc(N2CCN(Cc3cnc(C4CCCCC4)[nH]3)CC2)nc1` [Compound 128, 2-cyclohexyl-4(5)-[(4-(2-pyrimidinyl)-piperazin-1-yl)-methyl]-imidazole] came in with a melting point of 210 to 213 °C.

For the compound `c1ccc(-c2ncc(CCCN3CCN(c4ncccn4)CC3)[nH]2)cc1` [Compound 125, 2-phenyl-4(5)-[(4-(2-pyrimidinyl)-piperazin-1-yl)-propan-1-yl]-imidazole], the melting point lay within 133 to 135 °C.

`c1ccc(-c2ncc(CCN3CCN(c4ncccn4)CC3)[nH]2)cc1` [Compound 143, 2-phenyl-4(5)-[(4-(2-pyrimidinyl)-piperazin-1-yl)-ethan-1-yl]-imidazole]: the melting point was 142 to 144 °C.

Regarding `O=C(c1ccccc1)c1ncc(CN2CCN(c3ncccn3)CC2)[nH]1` [Compound 116, 2-(benzoyl)-4(5)-[(4-(2-pyrimidinyl)-piperazin-1-yl)-methyl]-imidazole], the melting point was in the range of 177 to 179 °C.

The compound `COc1ccccc1N1CCN(Cc2cnc(-c3cccc(Cl)c3)[nH]2)CC1` (as salt: hydrochloride) [Compound 22, 2-(3-Chlorophenyl)-4(5)-[(4-(2-methoxyphenyl)-piperazin-1-yl)-methyl]-imidazole dihydrochloride] gave a melting point of 198 to 199 °C.

For the compound `COc1ccccc1N1CCN(Cc2cnc(-c3ccc(F)cc3)[nH]2)CC1` [Compound 20, 2-(4-Fluorophenyl)-4(5)-[(4-(2-methoxyphenyl)-piperazin-1-yl)-methyl]-imidazole], the melting point lay in the range of 95 to 97 °C.

Take `COc1cccc(-c2ncc(CN3CCC(c4ccccc4)CC3)[nH]2)c1` (as salt: hydrochloride) [Compound 50, 2-(3-Methoxyphenyl)-4(5)[(4-phenyl-piperidin-1-yl)-methyl]-imidazole dihydrochloride]: the melting point is 114 to 117 °C.

With `c1ccc(-c2nc(CN3CCC(c4ccccc4)CC3)c[nH]2)cc1` (as salt: hydrochloride) [Compound 26, 2-Phenyl-4(5)-[(4-phenyl-piperidin-1-yl)-methyl]-imidazole dihydrochloride], the melting point was 238 to 240 °C.

The compound `c1ccc(CC2CCN(Cc3cnc(-c4ccccc4)[nH]3)CC2)cc1` (as salt: hydrochloride) [Compound 25, 2-Phenyl-4(5)-[(4-benzyl-piperidin-1-yl)methyl]-imidazole dihydrochloride] gave a melting point of 234 to 236 °C.

In turn, `Fc1ccnc(N2CCN(Cc3c[nH]c(-c4ccccc4)n3)CC2)n1` (as salt: hydrochloride) [Compound 58, 2-Phenyl-4(5)-[(4(4-fluoro-2-pyrimidinyl)-piperazin-1yl)-methyl]imidazole dihydrochloride] had a melting point of 188 to 190 °C.

`COc1ccccc1N1CCN(Cc2cnc(-c3ccccc3)[nH]2)CC1` [Compound 19, 2-phenyl-4(5)-[(4-(2-methoxyphenyl)-piperazin-1-yl)-methyl]imidazole]: the melting point is 105 to 107 °C.

Turning to `COc1ccc(-c2ncc(CN3CCC(c4ccccc4)CC3)[nH]2)cc1` (as salt: hydrochloride) [Compound 47, 2-(4-Methoxyphenyl)-4(5)-[(4-phenyl-piperidin-1-yl)-methyl]-imidazole dihydrochloride], the melting point is 196 to 199 °C.

Consider `c1ccc(CC2CCN(CC3CCCc4[nH]c(-c5ccccc5)nc43)CC2)cc1` (stereo not shown) [Compound 138, 2-phenyl-7-[(4-benzyl-piperidin-1-yl)-methyl]-4,5,6,7-tetrahydrobenzimidazole], for which the melting point lay within 189 to 191 °C.

The compound `CC(c1cnc(-c2ccccc2)[nH]1)N1CCC(Cc2ccccc2)CC1` (stereo not shown) (as salt: hydrochloride) [Compound 91, 2-phenyl-4(5)-[1-((4-benzyl-piperidin-1-yl)-ethan-1-yl)]imidazole dihydrochloride salt] returned a melting point of 169 to 171 °C.

In the case of `Clc1ccc(N2CCN(Cc3cnc(-c4ccccc4)[nH]3)CC2)cc1Cl` [Compound 61, 2-Phenyl-4(5)-[(4(3,4-dichlorophenyl)-piperazin-1yl-)methyl]imidazole], the melting point lay within 179 to 181 °C.

In general, melting point refers to the temperature of the solid-liquid transition.
